Measurements as given in a melting point compilation (Tetko et al.).

| SMILES | melting point |
| --- | --- |
| CC(C)(C)[Si](Cl)(Cl)Cl | 98 °C |
| Oc1c(Br)cc(Br)cc1-c1cc(Br)cc(Br)c1O | 205 °C |
| CC(C)=CCNC(=N)N | 62.5 °C |
| CCCCC(CC)COP(=O)(O)OCC(CC)CCCC (stereo unspecified) | -50 °C |
| CC(=O)OC1CCC2(C)C(CCC3C4CCC(=O)C4(C)CCC32)C1 (stereo unspecified) | 138 °C |
| Cc1cc(Cl)c(Cl)c(Cl)c1 | 45.5 °C |
| Cn1nnc2cc(C=O)ccc21 | 162 °C |
| Nc1cc(F)c(Cl)cc1N | 110 to 112 °C |
| Nc1nc(O)nc2c1cnn2CCO | 305 to 310 °C |
| Oc1ccc(Cl)cc1Sc1cc(Cl)ccc1O | 174 °C |
| C=C1C(=O)OC2C1CCC(C)C1(O)C=CC(=O)C21C (stereo unspecified) | 164 °C |
| O=[N+]([O-])c1ccccc1-n1cccc1 | 59 °C |
| COc1ccccc1C1CCNCC1 | 54 to 55 °C |
| CCOC(N)=S | 41 °C |
| CCCCCCCCCCCCCCCCCCOO | 49.5 °C |
| N#C/C(=C\c1ccccc1Cl)c1nc(-c2cccs2)cs1 | 102 °C |
| CN(C)CCO | -59 °C |
| NC(=S)c1cccc(I)c1 | 120 to 124 °C |
| CCCCCCSc1nnc(S)s1 | 75 °C |
| O=[N+]([O-])c1ccc(CCO)cc1 | 63 °C |
| CCC(C)(C)S | -104 °C |

| SMILES | melting point |
| --- | --- |
| Cn1ccc2cc(N=C=O)ccc21 | 42.5 to 44.5 °C |
| CSc1nc(=O)n(CCO)c2c1CCC2 | 193 to 195 °C |
| CCN(CC)C(C)O (stereo unspecified) | -70 °C |
| Brc1cccc(Br)n1 | 119 °C |
| C=C/C=C/C=C | -12 °C |
| O=Nc1c(-c2ccc([N+](=O)[O-])cc2)nc2ncccn12 | 191 °C |
| O=Cc1cccn1S(=O)(=O)c1ccccc1[N+](=O)[O-] | 139 to 141 °C |
| C#C[C@@]1(O)CC[C@@H]2[C@@H]3CC[C@@H]4CC(=O)CC[C@]4(C)[C@H]3CC[C@@]21C | 220 to 221 °C |
| OCCN1CCN(CCCN2c3ccccc3C=Cc3ccccc32)CC1 | 100 °C |
| O=Cc1ccccc1-n1cccn1 | 58 °C |
| O=[N+]([O-])c1ccc(Cc2ccccn2)c([N+](=O)[O-])c1 | 92 °C |
| CCCC1(O)CCC2C3CCC4CC(OC(C)=O)CCC4(C)C3CCC21C (stereo unspecified) | 120 to 121 °C |
| CC1CCCCC1C (stereo unspecified) | -49.9 °C |
| Cn1nc(C(C)(C)C)cc1N | 157 °C |
| Cn1nc(CC#N)c2c(N)ncnc21 | 135 to 138 °C |
| Sc1nc(-c2ccccc2)c(-c2ccccc2)o1 | 253 °C |
| Fc1cc(Br)c(I)c(Br)c1 | 134 to 137 °C |
| N#CCCO | -46 °C |
| Clc1ncccc1I | 95 °C |
| CCCC=C1C(=O)C2(C)CCC1C2(C)C (stereo unspecified) | 120 °C |
| CN1CCNC(=O)CCSCCSCCC1=O | 115 to 116 °C |

| SMILES | melting point |
| --- | --- |
| CN1CC2CC(C1)c1cccc(=O)n1C2 (stereo unspecified) | 137 °C |
| Sc1nc2cc3c(cc2[nH]1)OCCO3 | 300 °C |
| Clc1nc(Br)ns1 | 24 to 25 °C |
| Brc1ccc(Br)nn1 | 116 to 117 °C |
| Cc1ccc(-c2ccc(C)c(C)c2)cc1C | 76 °C |
| Cc1cc(NN)nc2c1c(C)nn2C | 199 to 205 °C |
| c1ccc2sc(SNC3CCCCC3)nc2c1 | 98 °C |
| O=C(CCl)c1cc(Br)c(Cl)s1 | 77 to 78 °C |
| CCOC1OC(=O)c2c(OC)cccc21 (stereo unspecified) | 67 °C |
| OCc1c2ccccc2cc2ccccc12 | 163 °C |
| Cc1ccc(N2C(=O)C=CC2=O)cc1Cl | 143 °C |
| CCOC(C/N=C/c1ccc(/C=N/CC(OCC)OCC)c([N+](=O)[O-])c1)OCC | 38 °C |
| CCCCCCCCCCCCOc1ccc(C=O)cc1 | 28 °C |
| O=c1c2ccccc2cc2ccc3ccccc3n12 | 125 °C |
| COc1ccc2ncccc2c1 | 26.5 °C |
| CC1(C)OC(=O)C(=Cc2ccc(Br)o2)C(=O)O1 | 116 °C |
| COC1C(O)C(C)OC(OC2CCC3(C)C(CCC4C3CCC3(C)C(C5=CC(=O)OC5)CCC43O)C2)C1O (stereo unspecified) | 221 °C |
| CC(C)[Si](C(C)C)(C(C)C)C1SCCCS1 | 48 °C |
| COc1cc(CC#N)cc(OC)c1OC | 77 °C |

More lines, now with the values ahead:

| melting point | SMILES |
| --- | --- |
| 60 °C | COC(=O)c1c(C)c(Br)c(OC)c(Br)c1OC |
| 111 °C | O=C(O)CCSc1ccc(Br)cc1 |
| 258 to 261 °C | COc1ccc2[nH]cc(CC(N)C(=O)O)c2c1 (racemic) |
| 162 °C | COC(=O)CCC(C)C1CCC2C3C(O)C(O)C4CC(O)CCC4(C)C3CC(O)C12C (stereo unspecified) |
| 91 to 92 °C | NC(=NO)c1cc(F)c(F)cc1F |
| 95 to 97 °C | COc1ccccc1C(=O)c1cc2c(cc1Br)OCCO2 |
| 7 °C | CCOC(=O)C=Cc1ccccc1 |
| 49 °C | c1ccc(O[Si](Oc2ccccc2)(Oc2ccccc2)Oc2ccccc2)cc1 |
| 135 to 140 °C | CC1(C)OC(=O)C(c2ccccc2)C(=O)O1 |
| 38 to 40 °C | CC(=O)c1ccccc1OCc1ccccc1 |
| 234 °C | C=C1CC2C3CCC4=CC(=O)C=CC4(C)C3C(O)CC2(C)C1(O)C(=O)CO (stereo unspecified) |
| 130 °C | CN1C(CC(=O)c2ccccc2)CCCC1CC(O)c1ccccc1 (stereo unspecified) |
| 242 to 243 °C | COC(=O)CCC(C)C1CCC2C3C(=O)CC4CC(=O)CCC4(C)C3CC(=O)C12C (stereo unspecified) |
| 88 to 89 °C | Cn1nc(-c2ccccc2)cc1C(=O)Cl |
| 117 °C | Nc1ccc(C(=O)c2ccccc2)cc1N |
| 175 °C | CCc1ccccc1NC(=O)c1cccc2ccccc12 |
| 107 °C | Cc1cccc(NC(=O)C(C(F)(F)F)C(F)(F)F)n1 |
| 198 to 200 °C | CC1(C)C=C(C(N)=O)C(C)(C)N1O |
| 164 to 166 °C | COc1cc(C=O)cc(Br)c1O |
| 175 °C | COC(=O)C1=C(C)NC(=S)NC1c1ccc([N+](=O)[O-])cc1 (stereo unspecified) |
| 178 °C | CC(C(=O)O)c1ccc(C2CCCC(=NO)C2)cc1 (stereo unspecified) |
| 210 °C | Cc1nc(/C(C#N)=N/Nc2ccccc2[N+](=O)[O-])sc1/N=N/c1ccccc1 |
| 107 °C | Cc1ccc(O)c([N+](=O)[O-])n1 |
| 255 °C | O=C(C1=NN(c2ccccc2)C2C(=O)N(c3ccc(Br)cc3)C(=O)C12)c1ccc(Cl)cc1 (stereo unspecified) |

| melting point | SMILES |
| --- | --- |
| 176 °C | OCC1OC(OC2C(CO)OC(O)(CO)C2O)C(O)C(O)C1O (stereo unspecified) |
| 68 °C | CC1CCC(C(C)C)C(OC(=O)C2=CCC(C(=O)OC3CC(C)CCC3C(C)C)=CC2)C1 (stereo unspecified) |
| 265 to 267 °C | O=C(O)c1cccc2c1-c1ccc(I)cc1C2 |
| 69 °C | O=S(=O)(Cl)c1c(F)c(Br)cc(F)c1Br |
| 148 to 149 °C | CC(=O)Nc1c(F)ccc([N+](=O)[O-])c1F |
| 200 to 201 °C | CC1=C(c2ccccc2)c2ccccc2/C1=N/NC(N)=O |
| 76 to 78 °C | CCCC1(C)CC(=O)NC1=O (stereo unspecified) |
| 19 °C | CCC(=O)c1cccc(C(F)(F)F)c1 |
| 92 to 93 °C | CCOC(=O)c1c(N)sc(C)c1-c1ccccc1 |
| 154 to 160 °C | O=C(O)C(F)(F)C(F)(F)C(F)(F)C(F)(F)C(F)(F)C(F)(F)C(F)(F)C(F)(F)C(=O)O |
| 134 °C | O=C(O)Cc1cccc(Cl)c1Cl |
| 88 °C | CC(=O)c1ccc2ccc3cccc4ccc1c2c34 |
| 231 to 234 °C | O=Cc1ccc(-c2cncc(C(=O)O)c2)cc1 |
| 7 °C | CC1=CC(=O)OC(C)(C)O1 |
| 135 to 140 °C | OC1(c2ccc(Cl)c(C(F)(F)F)c2)CCNCC1 |
| 41 °C | O=C(O)CCCCc1cccs1 |
| 52 °C | O=C(OCc1ccccc1)c1sc(Cl)nc1C(F)(F)F |
| 213 to 216 °C | Cc1cccc(C)c1NC(=O)CN(CC(=O)O)CC(=O)O |
| 271 °C | O=C1OC(c2ccccc2)=N/C1=C\c1ccc(/C=C2/N=C(c3ccccc3)OC2=O)cc1 |
| 175 to 178 °C | Cc1cc(C(=O)O)nn1C |
| 238 °C | CC(=O)C1=C(C)NC(=O)NC1c1ccccc1 (stereo unspecified) |
| 173 °C | CCOc1ccc(NC(N)=O)cc1 |
| 133 °C | Cc1cc(O)c([N+](=O)[O-])cc1Cl |
| 273 °C | CC1=NC(C)CNc2c1c(=O)n(-c1ccccc1)c1ccccc21 (stereo unspecified) |

| melting point | SMILES |
| --- | --- |
| 168 to 170 °C | O=C(O)c1cc(S(=O)(=O)Cl)ccc1O |
| 105 °C | CCCCCCSc1nc2ccc(NC(=O)COc3ccc(Cl)cc3Cl)cc2s1 |
| 106 to 108 °C | COc1ccc(C(=O)C=Cc2ccccc2)c(O)c1 |
| 72 °C | C/C=C/C(=O)O |
| 116 °C | Cc1cccc2c1C(=O)OC2=O |
| 183 °C | COC(=O)c1cc(C(=O)O)cc([N+](=O)[O-])c1 |
| 150 °C | CC(C)NNC(=O)c1ccncc1 |
| 90 °C | CC(C)CC(N)C(=O)Nc1ccc([N+](=O)[O-])cc1 (stereo unspecified) |
| 119 °C | O=C(O)C1=CCCC1 |
| 151 °C | O=C(C1=NOC2C(=O)N(c3ccc(F)cc3)C(=O)C12)c1ccc(Cl)cc1 (stereo unspecified) |
| -50 °C | CCCCCCCCCCOC(=O)CCCCC(=O)OCCCCCCCC |
| 186 to 187 °C | Nc1ccc2c(c1)CS(=O)(=O)C2 |
| 42 to 43 °C | FC(F)C(F)(F)C(F)(F)C(F)(F)C(F)(F)C(F)(F)C(F)(F)C(F)(F)C(F)(F)C(F)F |
| 210 °C | O=S1(=O)Cc2ncc3ccccc3c2C1 |
| 119 °C | CC(C)(C)C(=O)OCOC(=O)C1N2C(=O)C(N=CN3CCCCCC3)C2SC1(C)C (stereo unspecified) |
| 36 to 37 °C | CCC(=O)c1ccc(C(F)(F)F)cc1 |
| 69 °C | OCC(F)(F)C(F)(F)C(F)(F)C(F)(F)CO |
| 68 to 70 °C | C#Cc1ccc(C(C)=O)cc1 |
| 156 °C | Nc1ccc(CN2CCS(=O)(=O)CC2)cc1 |
| 200 °C | Cc1nc2ccccc2c(C(=O)O)c1O |
| 96 °C | CC(=O)c1cccc(O)c1 |
| 156 to 157 °C | CSc1ncc(Br)c(C(=O)O)n1 |
